Data on one compound can be found in patent US7045145B1, “Transdermal contraceptive delivery system and process” (Agile Therapeutics, Inc., priority 1999, dated 2006).

A short description of the data set: clinical. As to conditions: female, human, in vivo.

Description: Serum level of levonorgestrel (LNG), ethinyl estradiol (EE) as well as luteinizing hormone (LH), progesterone (P) and estradiol (E2) were analyzed by radio-immunassay methods.
The total duration of study for each subject participating in this study is 5 months. It consists of one base-line period followed by three treatment periods and one recovery period. Each period is one menstrual cycle of the person subjects.
Subjects attending this 5 month-long study were randomly divided and sequentially admitted into three study groups. Group A, B and C subjects received one piece of 7.5 cm^2, 10.0 cm^2 and 12.5 cm^2 TCDS patch weekly, respectively, for three consecutive weeks I each of the three treatment periods. During the baseline and recovery periods, all the subjects received only the placebo patch of the corresponding size for three consecutive weeks. During the fourth week of each study period, no patch was worn by the subjects in any treatment groups.
According to the blood sampling schedule, a total of 57 blood samples (about 10 ml per sample) were taken from each subject during the 5-month study. During the three treatment cycles, 15 samples were taken through out the 21 days of patch wearing period. At the end of the third treatment cycle, 5 additional blood samples were taken during the 24 hours post patch removal which allows the elimination pharmacokinetics of drugs to be studied. […]

As to `C#C[C@]1(O)CC[C@H]2[C@@H]3CCC4=CC(=O)CC[C@@H]4[C@H]3CC[C@@]21CC` [levonorgestrel], the Cmax (in general, the peak of the concentration-time curve) is more than 2 ng/mL and the “serum levels compared with the level considered necessary for effective contraception in women” value is reported as “exceeded the level (200–600 pg/ml)”.
